Data from article PMC11315935, “Multi-layered heterochromatin interaction as a switch for DIM2-mediated DNA methylation” (Nature Communications, 2024).

Experiments:
DIM2 [1] = assay: In vitro DNA methylation assay: effect of HP1 and H3 peptides on DIM2 activity; type: biochemical, Neurospora Crassa; set-up: DNA methylation activity of DIM2 in presence of HP1, WT or W98A: unit not given beside the values; details: for effect on DNA methylation activity of DIM2 (in words): 36-mer DNA duplex, 1.0 µM peptide and/or 2 µM HP1; for DNA methylation activity of DIM2 in presence of HP1, WT or W98A: Sup Fig. 1e, (CTA)12/(TAG)12 DNA duplex, 1.0 µM DIM2, 2 µM HP1, 30 °C, 30 min, pH 8.0
Experimental: In vitro DNA methylation assay was performed in a 20-µL reaction mixture. For the substrate specificity assay, the following DNA duplexes were used as substrates: CG DNA (Upper strand: 5’-[…]-3’), hemimethylated CG DNA (Upper strand: 5’-TAAATTTXGATTAATAAT-3’, X = 5-methylcytosine; Lower strand: 5’-[…] -3’), CHG DNA (Upper strand: 5’-[…]-3’), and CHH DNA (Upper strand: 5’-[…]-3’). The reaction mixture contains 0.25 µM DIM2, 1.0 µM DNA duplex, 1.0 µM synthesized H3K9me3 peptide (residues 1-24 of H3 plus a C-terminal tryptophan), 0.5 µM HP1, and 0.56 µM S-adenosyl-L-[methyl-^3H] methionine with a specific activity of 18 Ci/mmol (PerkinElmer) in buffer containing 50 mM Tris-HCl (pH 8.0), 100 mM NaCl, 0.05% β-mercaptoethanol, 5% glycerol, and 200 µg/mL BSA. For the rest of the DNA methylation assay, each reaction mixture contains 1.0 µM DIM2, […] methionine with a specific activity of 18 Ci/mmol (PerkinElmer) in buffer containing 50 mM Tris-HCl (pH 8.0), 100 mM NaCl, 0.05% β-mercaptoethanol, 5% glycerol, and 200 µg/mL BSA. In addition, 1.0 µM synthesized H3K9me3 or H3K9me0 peptide (residues 1-24 of H3 plus a C-terminal tryptophan) and/or 2 µM HP1 protein was included to evaluate the effect of H3 and HP1 regulation. The reaction mixture was incubated at 30 °C for 30 min, unless indicated otherwise, before being quenched by the addition of 5 µL of 10 mM cold SAM. After the reaction, 8 μL of the mixtures was loaded onto Hybond N nylon membrane (GE Healthcare), which was left to dry out at room temperature. The membrane was subsequently washed with 0.2 M ammonium bicarbonate (pH 8.2) two times (20 min per time), deionized water (20 min) once, and 95% ethanol (5 min) once. After air dried, the membrane carrying each sample was transferred into a vial containing 3 mL scintillation buffer (Fisher). The tritium scintillation was measured and recorded by a Beckman LS6500 counter. Each the reaction was repeated three times.

DIM2 [2] = assay: In vitro DNA methylation kinetics, substrate specificity of DIM2; type: biochemical, Neurospora Crassa; set-up: unit not given here; details: Sup Fig. 1f, 0.25 µM DIM2, 1.0 µM DNA, 1.0 µM H3K9me3 peptide, 0.5 µM HP1, pH 8.0, 30 °C
Experimental: In vitro DNA methylation assay was performed in a 20-µL reaction mixture. For the substrate specificity assay, the following DNA duplexes were used as substrates: CG DNA (Upper strand: 5’-[…]-3’), hemimethylated CG DNA (Upper strand: 5’-TAAATTTXGATTAATAAT-3’, X = 5-methylcytosine; Lower strand: 5’-[…] -3’), CHG DNA (Upper strand: 5’-[…]-3’), and CHH DNA (Upper strand: 5’-[…]-3’). The reaction mixture contains 0.25 µM DIM2, 1.0 µM DNA duplex, 1.0 µM synthesized H3K9me3 peptide (residues 1-24 of H3 plus a C-terminal tryptophan), 0.5 µM HP1, and 0.56 µM S-adenosyl-L-[methyl-^3H] methionine with a specific activity of 18 Ci/mmol (PerkinElmer) in buffer containing 50 mM Tris-HCl (pH 8.0), 100 mM NaCl, 0.05% β-mercaptoethanol, 5% glycerol, and 200 µg/mL BSA. For the rest of the DNA methylation assay, each reaction mixture contains 1.0 µM DIM2, 1.0 µM (CAT)12/(ATG)12 DNA duplex and 0.56 µM S-adenosyl-L-[methyl-^3H] methionine with a specific activity of 18 Ci/mmol (PerkinElmer) in buffer containing 50 mM Tris-HCl (pH 8.0), 100 mM NaCl, 0.05% β-mercaptoethanol, 5% glycerol, and 200 µg/mL BSA. In addition, 1.0 µM synthesized H3K9me3 or H3K9me0 peptide (residues 1-24 of H3 plus a C-terminal tryptophan) and/or 2 µM HP1 protein was included to evaluate the effect of H3 and HP1 regulation. The reaction mixture was incubated at 30 °C for 30 min, unless indicated otherwise, before being quenched by the addition of 5 µL of 10 mM cold SAM. After the reaction, 8 μL of the mixtures was loaded onto Hybond N nylon membrane (GE Healthcare), which was left to dry out at room temperature. The membrane was subsequently washed with 0.2 M ammonium bicarbonate (pH 8.2) two times (20 min per time), deionized water (20 min) once, and 95% ethanol (5 min) once. After air dried, the membrane carrying each sample was transferred into a vial containing 3 mL scintillation buffer (Fisher). The tritium scintillation was measured and recorded by a Beckman LS6500 counter. Each the reaction was repeated three times.

[3] = reaction time 0 min, replicate 1
[4] = reaction time 0 min, replicate 2
[5] = reaction time 0 min, replicate 3
[6] = reaction time 15 min, replicate 1
[7] = reaction time 15 min, replicate 2
[8] = reaction time 15 min, replicate 3
[9] = reaction time 30 min, replicate 1
[10] = reaction time 30 min, replicate 2
[11] = reaction time 30 min, replicate 3

H3_1-24K9me0: H3K9me0 peptide (residues 1-24 of H3 plus a C-terminal tryptophan), unmethylated H3 K9
effect on DNA methylation activity of DIM2 (in words) (DIM2 [1]): failed to synergize with HP1 to boost the DNA methylation activity of DIM2

HP1WT: Neurospora Crassa HP1 (residues 1-266; Q1K612)
effect on DNA methylation activity of DIM2 (in words) (DIM2 [1]): slight but notable activity of DIM2
DNA methylation activity of DIM2 in presence of HP1, WT or W98A (DIM2 [1]; replicate 1): 22.922
DNA methylation activity of DIM2 in presence of HP1, WT or W98A (DIM2 [1]; replicate 2): 23.125
DNA methylation activity of DIM2 in presence of HP1, WT or W98A (DIM2 [1]; replicate 3): 22.99

CHH: CHH DNA (Upper strand: 5’-ATTATTAATCTAAATTTA-3’) (DNA, backbone not given here; DNA duplex substrate for methylation assay)
DNA methylation kinetics (DIM2 [2]; [3]): 0.004
DNA methylation kinetics (DIM2 [2]; [4]): 0.003
DNA methylation kinetics (DIM2 [2]; [5]): 0.026
DNA methylation kinetics (DIM2 [2]; [6]): 0.184
DNA methylation kinetics (DIM2 [2]; [7]): 0.154
DNA methylation kinetics (DIM2 [2]; [8]): 0.169
DNA methylation kinetics (DIM2 [2]; [9]): 0.346
DNA methylation kinetics (DIM2 [2]; [10]): 0.291
DNA methylation kinetics (DIM2 [2]; [11]): 0.235

CHG: CHG DNA (Upper strand: 5’-ATTATTAATCTGAATTTA-3’) (DNA, backbone not given here; DNA duplex substrate for methylation assay)
DNA methylation kinetics (DIM2 [2]; [3]): 0.037
DNA methylation kinetics (DIM2 [2]; [4]): 0.044
DNA methylation kinetics (DIM2 [2]; [5]): 0.013
DNA methylation kinetics (DIM2 [2]; [6]): 1.24
DNA methylation kinetics (DIM2 [2]; [7]): 1.116
DNA methylation kinetics (DIM2 [2]; [8]): 1.338
DNA methylation kinetics (DIM2 [2]; [9]): 1.866
DNA methylation kinetics (DIM2 [2]; [10]): 1.872
DNA methylation kinetics (DIM2 [2]; [11]): 1.906

CG: CG DNA (Upper strand: 5’-ATTATTAATCGAAATTTA-3’) (DNA, backbone not given here; DNA duplex substrate for methylation assay)
DNA methylation kinetics (DIM2 [2]; [3]): 0.019
DNA methylation kinetics (DIM2 [2]; [4]): 0.03
DNA methylation kinetics (DIM2 [2]; [5]): 0.038
DNA methylation kinetics (DIM2 [2]; [6]): 0.476
DNA methylation kinetics (DIM2 [2]; [7]): 0.828
DNA methylation kinetics (DIM2 [2]; [8]): 0.621
DNA methylation kinetics (DIM2 [2]; [9]): 1.426
DNA methylation kinetics (DIM2 [2]; [10]): 1.174
DNA methylation kinetics (DIM2 [2]; [11]): 1.115
